Target: T1, wt human NUAK1, full length (Homo sapiens, UniProt O60285)
T1 construct: 8 nM wt human NUAK1, full length (ThermoFisher/USA); purchased ThermoFisher/USA
T1 sequence (O60285 1-661): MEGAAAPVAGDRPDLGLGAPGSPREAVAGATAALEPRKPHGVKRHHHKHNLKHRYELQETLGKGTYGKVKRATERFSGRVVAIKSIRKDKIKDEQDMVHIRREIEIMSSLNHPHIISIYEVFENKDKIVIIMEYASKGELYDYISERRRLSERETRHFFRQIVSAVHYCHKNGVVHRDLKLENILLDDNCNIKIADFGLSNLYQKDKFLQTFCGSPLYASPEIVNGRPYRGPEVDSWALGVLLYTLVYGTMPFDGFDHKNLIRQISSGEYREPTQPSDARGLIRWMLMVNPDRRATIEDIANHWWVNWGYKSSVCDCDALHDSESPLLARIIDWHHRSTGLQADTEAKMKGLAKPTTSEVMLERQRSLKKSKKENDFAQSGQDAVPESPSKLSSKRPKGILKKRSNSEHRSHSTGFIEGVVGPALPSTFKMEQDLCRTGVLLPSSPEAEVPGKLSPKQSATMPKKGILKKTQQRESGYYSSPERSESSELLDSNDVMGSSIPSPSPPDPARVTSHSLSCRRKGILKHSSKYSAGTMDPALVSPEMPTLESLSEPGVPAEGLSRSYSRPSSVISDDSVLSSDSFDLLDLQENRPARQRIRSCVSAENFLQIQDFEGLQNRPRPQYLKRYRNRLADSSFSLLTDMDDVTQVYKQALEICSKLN
Assay: TR-FRET LanthaScreen Eu Kinase Binding Assay, NUAK1
Settings: 5 nM Kinase Tracer 236; read-out: IC50, inhibitory activity toward NUAK1
Description: The basic protocol for TR-FRET LanthaScreen Eu Kinase Binding Assay inhibitor studies were performed as follows. LanthaScreen Kinase Binding Assays (ThermoFisher/USA) to evaluate inhibitors were performed by addition of 5 μl of test compound in corresponding DMSO dilutions/5 μl of kinase/antibody mixture, 5 μl of tracer into 384 well small volume plates. After incubation for 1 hour at room temperature, plates were read. Data analysis of emission ratios was according to LanthaScreen Eu Kinase Binding Assay protocol.
Kinase and assay components were adjusted to final concentrations according to the kit protocol. For LRRK2: 5 nM wt human LRRK2, catalytic site, or G2019S human LRRK2, catalytic site (ThermoFisher/USA), 2 nM Eu-Anti-GST Antibody, 10 nM Kinase Tracer 236 in 1× Kinase Buffer A. For NUAK1: 8 nM wt human NUAK1, full length (ThermoFisher/USA), 2 nM Eu-Anti-His Antibody, 5 nM Kinase Tracer 236 in 1× Kinase Buffer A.

Structure (SMILES)	IC50
Fc1cccc(Cl)c1C1=Nc2cn[nH]c2-c2cc(OC(F)(F)F)ccc2N1 [Compound 41, 5-(2-chloro-6-fluorophenyl)-9-(trifluoromethoxy)-1,6-dihydrobenzo[d]pyrazolo[3,4-f][1,3]diazepine]	100 to 1000 nM
Fc1cccc(F)c1C1=Nc2cn[nH]c2-c2cc(C(F)(F)F)ccc2N1 [Compound 46, 5-(2,6-difluorophenyl)-9-(trifluoromethyl)-1,6-dihydrobenzo[d]pyrazolo[3,4-f][1,3]diazepine]	10 to 100 nM
Fc1cccc(Cl)c1C1=Nc2cn[nH]c2-c2cc(C(F)(F)F)ccc2N1 [Compound 47, 5-(2-chloro-6-fluorophenyl)-9-(trifluoromethyl)-1,6-dihydrobenzo[d]pyrazolo[3,4-f][1,3]diazepine]	100 to 1000 nM
CC(C)Oc1ccc2c(c1)NC(c1c(F)cccc1F)=Nc1cn[nH]c1-2 [Compound 100, 5-(2,6-difluorophenyl)-8-isopropoxy-1,6-dihydrobenzo[d]pyrazolo[3,4-f][1,3]diazepine]	100 to 1000 nM
CN(C)C(=O)Oc1ccc2c(c1)-c1[nH]ncc1NC(c1c(F)cccc1F)=N2 [Compound 136, 5-(2,6-difluorophenyl)-1,4-dihydrobenzo[d]pyrazolo[3,4-f][1,3]diazepin-9-yl dimethylcarbamate]	100 to 1000 nM
Fc1cccc(F)c1C1=Nc2c(C3CC3)n[nH]c2-c2ccccc2N1 [Compound 137, 3-cyclopropyl-5-(2,6-difluorophenyl)-1,6-dihydrobenzo[d]pyrazolo[3,4-f][1,3]diazepine]	100 to 1000 nM
CSc1n[nH]c2c1NC(c1c(F)cccc1F)=Nc1ccc(C)cc1-2 [Compound 145, 5-(2,6-difluorophenyl)-9-methyl-3-(methylthio)-1,4-dihydrobenzo[d]pyrazolo[3,4-f][1,3]diazepine]	100 to 1000 nM
CCc1cc(F)c2c(c1)-c1[nH]ncc1NC(c1c(F)cccc1F)=N2 [Compound 167, 5-(2,6-difluorophenyl)-9-ethyl-7-fluoro-1,4-dihydrobenzo[d]pyrazolo[3,4-f][1,3]diazepine]	100 to 1000 nM
COc1cc(F)c(C2=Nc3cn[nH]c3-c3cc(C)ccc3N2)c(F)c1 [Compound 173, 5-(2,6-difluoro-4-methoxyphenyl)-9-methyl-1,6-dihydrobenzo[d]pyrazolo[3,4-f][1,3]diazepine]	10 to 100 nM
Cc1ccc2c(c1)-c1[nH]ncc1N=C(c1c(F)cc(Br)cc1F)N2 [Compound 176, 5-(4-bromo-2,6-difluorophenyl)-9-methyl-1,6-dihydrobenzo[d]pyrazolo[3,4-f][1,3]diazepine]	100 to 1000 nM
Cc1ccc2c(c1)-c1n[nH]cc1NC(c1c(F)ccc(C)c1F)=N2 [Compound 178, 5-(2,6-difluoro-3-methylphenyl)-9-methyl-2,4-dihydrobenzo[d]pyrazolo[3,4-f][1,3]diazepine]	10 to 100 nM
Cc1cc(F)c(C2=Nc3ccc(C)cc3-c3n[nH]cc3N2)c(F)c1 [Compound 179, 5-(2,6-difluoro-4-methylphenyl)-9-methyl-2,4-dihydrobenzo[d]pyrazolo[3,4-f][1,3]diazepine]	10 to 100 nM
Cc1ccc2c(c1)-c1[nH]ncc1NC(c1c(F)ccc(F)c1Cl)=N2 [Compound 185, 5-(2-chloro-3,6-difluorophenyl)-9-methyl-1,4-dihydrobenzo[d]pyrazolo[3,4-f][1,3]diazepine]	100 to 1000 nM
Cc1ccc2c(c1)-c1n[nH]cc1NC(c1c(F)cc(C(F)(F)F)cc1F)=N2 [Compound 205, 5-(2,6-difluoro-4-(trifluoromethyl)phenyl)-9-methyl-2,4-dihydrobenzo[d]pyrazolo[3,4-f][1,3]diazepine]	100 to 1000 nM
Cc1ccc2c(c1)-c1n[nH]cc1NC(c1c(F)cccc1C(F)(F)F)=N2 [Compound 206, 5-(2-fluoro-6-(trifluoromethyl)phenyl)-9-methyl-2,4-dihydrobenzo[d]pyrazolo[3,4-f][1,3]diazepine]	100 to 1000 nM

Now from value to molecule:

IC50	Structure (SMILES)
100 to 1000 nM	Fc1cccc(F)c1C1=Nc2cn[nH]c2-c2cc(OC(F)(F)F)ccc2N1 [Compound 40, 5-(2,6-difluorophenyl)-9-(trifluoromethoxy)-1,6-dihydrobenzo[d]pyrazolo[3,4-f][1,3]diazepine]
10 to 100 nM	CCc1ccc2c(c1)-c1[nH]ncc1N=C(c1c(F)cccc1F)N2 [Compound 44, 5-(2,6-difluorophenyl)-9-ethyl-1,6-dihydrobenzo[d]pyrazolo[3,4-f][1,3]diazepine]
100 to 1000 nM	FCc1ccc2c(c1)-c1[nH]ncc1N=C(c1c(F)cccc1F)N2 [Compound 51, 5-(2,6-difluorophenyl)-9-(fluoromethyl)-1,6-dihydrobenzo[d]pyrazolo[3,4-f][1,3]diazepine]
100 to 1000 nM	Fc1cccc(F)c1C1=Nc2cn[nH]c2-c2cc(-c3ccc[nH]3)cnc2N1 [Compound 87, 5-(2,6-difluorophenyl)-9-(1H-pyrrol-2-yl)-1,6-dihydropyrazolo[4,3-d]pyrido[3,2-f][1,3]diazepine]
100 to 1000 nM	Fc1cccc(F)c1C1=Nc2cn[nH]c2-c2cc(OC3CCOCC3)ccc2N1 [Compound 102, 5-(2,6-difluorophenyl)-9-((tetrahydro-2H-pyran-4-yl)oxy)-1,6-dihydrobenzo[d]pyrazolo[3,4-f][1,3]diazepine]
100 to 1000 nM	NC(=O)c1cnc2c(c1)-c1[nH]ncc1N=C(c1c(F)cccc1F)N2 [Compound 140, 5-(2,6-difluorophenyl)-1,6-dihydropyrazolo[4,3-d]pyrido[3,2-f][1,3]diazepine-9-carboxamide]
10 to 100 nM	Cc1ccc2c(c1)-c1[nH]ncc1N=C(c1c(F)cc(F)cc1F)N2 [Compound 175, 9-methyl-5-(2,4,6-trifluorophenyl)-1,6-dihydrobenzo[d]pyrazolo[3,4-f][1,3]diazepine]
100 to 1000 nM	Cc1ccc2c(c1)-c1[nH]ncc1N=C(c1c(F)ccc(N)c1F)N2 [Compound 177, 2,4-difluoro-3-(9-methyl-1,6-dihydrobenzo[d]pyrazolo[3,4-f][1,3]diazepin-5-yl)aniline]
100 to 1000 nM	Fc1cccc(Cl)c1C1=Nc2cnc(C(F)(F)F)cc2-c2[nH]ncc2N1 [Compound 188, 5-(2-chloro-6-fluorophenyl)-9-(trifluoromethyl)-1,4-dihydropyrazolo[4,3-d]pyrido[4,3-f][1,3]diazepine]
100 to 1000 nM	FCCc1ccc2c(c1)-c1n[nH]cc1NC(c1c(F)cccc1F)=N2 [Compound 204, 5-(2,6-difluorophenyl)-9-(2-fluoroethyl)-2,4-dihydrobenzo[d]pyrazolo[3,4-f][1,3]diazepine]
10 to 100 nM	O=C(Nc1ccc2c(c1)-c1n[nH]cc1NC(c1c(F)cccc1F)=N2)OCc1ccccc1 [Compound 207, benzyl(5-(2,6-difluorophenyl)-2,4-dihydrobenzo[d]pyrazolo[3,4-f][1,3]diazepin-9-yl)carbamate]
100 to 1000 nM	OCCc1ccc2c(c1)-c1n[nH]cc1NC(c1c(F)cccc1F)=N2 [Compound 208, 2-(5-(2,6-difluorophenyl)-2,4-dihydrobenzo[d]pyrazolo[3,4-f][1,3]diazepin-9-yl)ethan-1-ol]
10 to 100 nM	Fc1cccc(F)c1C1=Nc2ccc(CCCl)cc2-c2n[nH]cc2N1 [Compound 209, 9-(2-chloroethyl)-5-(2,6-difluorophenyl)-2,4-dihydrobenzo[d]pyrazolo[3,4-f][1,3]diazepine]
100 to 1000 nM	Cc1ccc2c(c1)-c1n[nH]c(C)c1NC(c1c(F)cccc1F)=N2 [Compound 212, 5-(2,6-difluorophenyl)-3,9-dimethyl-2,4-dihydrobenzo[d]pyrazolo[3,4-f][1,3]diazepine]
